Patent US20110294741A1, “USE OF COMPOUNDS IN THE TREATMENT OF TAU-INDUCED CYTOTOXICITIES” (Bioalvo-Servicos, Investigacao e Desenvolvimento em …, priority 2008, published 2011)

Legend:
[1] = Partition of peptide into lipid bilayer vesicles (fluorescence titration); format: physicochemical
Source text: Vesicles of zwiterionic lipid, POPC ([…]), and POPC with negative lipid, POPG in different proportions: 80:20 ▪, 50:50 and 30:70 ? until 100% POPG ( ? ). The unit of 1/1 w on the y axis is the ratio between fluorescence intensities.
Vesicles of zwiterionic lipid, POPC, and POPC with negative lipid, POPG, in the proportion 50 POPC: 50 POPG.
As can be observed, the fluorescence intensity of the phenolic moiety increases due to the insertion in the apolar environment created by the lipids. Negative lipids (other symbols) inhibit the interaction due to charge repulsion. […] KTP-NH2 is therefore suitable for i.v. or i.p. administration. KTP-NH2 diffuses through the blood stream, reaches the BBB, and translocates.
In order to confirm that these plasma-stable KTP-NH2 derivatives maintained their lipophilicity, their potential interaction with human cell membranes was assessed. Again, we performed biophysical studies using fluorescent methodologies (Santos N. C., Prieto M. and Castanho M. A. 2003. Quantifying molecular partition into model systems of biomembranes: an emphasis on optical spectroscopic methods. Biochim Biophys Acta 1612: 123-135.).

[2] = Cytotoxicity in human hepatocytes (LDH release and ATP); format: cell-based; settings: LDH and ATP determination, read-out: LC50 (the source's name)
Experimental: Cytotoxicity was assessed with a cell-based assay using human hepatocytes. Cell death was assayed by quantifying plasma membrane damage or rupture through measurement of the release of lactate dehydrogenase (LDH) (Legrand, C. et al. 1992. Lactate dehydrogenase (LDH) activity of the cultured eukaryotic cells as marker of the number of dead cells in the medium. J. Biotechnol. 25: 231-243), a stable cytoplasmic enzyme present in most cells. Determination of cell viability was performed by quantifying ATP (Cree I. A and Andreotti P. E. 1997. Measurement of cytotoxicity by ATP-based luminescence assay in primary cell cultures and cell lines. Toxicology in vitro, 11: 553-556), a marker for cell viability because it is present in all metabolically active cells and the concentration declines very rapidly when the cells undergo necrosis or apoptosis.

[3] = Metabolic stability in human liver microsomal preparation; format: in vitro ADME; settings: human liver microsomes, 1-hour incubation
Source text: Many compounds can never become a drug because they are rapidly metabolized in the liver. It is important to confirm that metabolic stability is adequate to the desired distribution of compound throughout the body.

[4] = tested on: […] I cells, tunicamycin-induced ER stress; assay: Yeast platform DISAGGREGATOR I, ER stress GFP reporter (chemically induced with tunicamycin); format: cell-based; settings: 1 μg/ml tunicamycin
Experimental: Cells were grown as described for FIG. 7;
The yeast platform DISAGGREGATOR I comprises an ER stress element operably linked to a GFP reporter element and is used to determine the level of ER stress in cells during growth or triggered by specific ER stress inducers, e.g. tunicamycin. Tunicamycin is known to inhibit the glycosylation of nascent polypeptides, resulting in misfolded proteins, that are retained in the endoplasmic reticulum and therefore triggering ER stress.
(§1) Using these two platforms in parallel, it is possible to identify compounds that reduce specifically the stress induced by the TAU P301L protein, and other compounds that are simply general ER stress reducers.
(§2) DISAGGREGATOR I P301L cells were grown in 200 μl medium containing the KTP-NH2 at a concentration of 10 μM and 100 μM. DISAGGREGATOR I cells were grown in the same condition but subjected to an addition of 1 μg/mL of tunicamycin in order to induce ER stress chemically.

[5] = tested on: Tau P301L ([…] I P301L cells); assay: Yeast platform DISAGGREGATOR I P301L, ER stress GFP reporter (target induced); format: cell-based; settings: for decrease of the fluorescent signal: first assay (FIG. 9); for decrease of the stress: second assay (FIG. 11)
Experimental: Cells were grown in 200 microlitre minimum medium supplemented with 20 g/L galactose, at 30° C., with agitation at 600 rpm;
KTP-NH2 was further tested on a general inducer of the same pathological mechanism to assess its specificity for tau and compared with two control KTP derivatives which were tested on the same platform.
The Endoplasmic Reticulum (ER) fulfils multiple cellular functions, the main one being the proper folding of proteins destined for secretion or display on the cell surface. Many disturbances cause accumulation of unfolded proteins in the ER, triggering an evolutionarily conserved response, termed the unfolded protein response (UPR) or ER stress. The initial intent of the UPR is to adapt to the changing environment, and re-establish normal ER function.
In parallel, the yeast platform DISAGGREGATOR I P301L comprises the same ER stress element operably linked to the same GFP reporter element and additionally expresses the exogenous protein TAU P301L which induces ER stress.
as §1
DISAGGREGATOR I P301L cells were grown in 200 μl medium containing KTP-NH2 or control compounds (referred to as control 1 and control 2) at a concentration of 10 μM and 100 μM. No effect on the fluorescence could be detected for the control compounds, meaning that the two compounds are inefficient to reduce the stress triggered by the TAU P301L protein (FIGS. 7 and 8).
as §2
The inventors created a yeast-based screening application for the detection of compounds that act as modulators of the toxicity (neurodegeneration) for neurons (not pain) induced by the expression of tau P301L, a pathological isoform of tau protein. This yeast-based application is designated as DISAGGREGATOR I P301L and provides a valuable tool for the high throughput screening of tau modulators. It is a model-based system where the cellular environment produced upon P301L expression is recapitulated and cell toxicity is measured and quantified. Compounds that have the potential to modulate pathological pathways activated by the expression of P301L are detected through a reduction in the cytotoxic readout. Tau protein is expressed in central nerve cells and, consequently, tauopathies are diseases of the central nervous system. This implies that a therapeutic compound for tauopathies must be able to access the central nervous system by penetrating the blood-brain barrier. We tested KTP-NH2 in the DISAGGREGATOR P301L system. Results were very impressive for KTP-NH2 to be used as a drug for tau-associated pathologies. Therefore, after obtaining the proof of concept confirmation of KTP-NH2 potential as a tau modulator, we developed a series of derivatives with a higher plasma-stability. The present invention protects the use of KTP-NH2 and its derivatives in the treatment of tau-induced cytotoxicities.

rats (Wister, male) = assay: In vivo toxicology: histological alterations in liver, kidney and spleen; design: species or system rat; settings: i.p. once a day 3.23 mg-100 g body mass, seven days, hematoxylin/eosin sections
Experimental: The toxicological studies were carried out with rats (Wister, male) injected i.p. once a day with 3.23 mg-100 g body mass during seven days.
For investigation of histological alterations in liver, kidney and spleen hematoxylin/eosin-stained sections of fixed tissue were used. Hematoxylin/eosin-stained sections were examined by an experienced pathologist.

[6] = 100 μM, average of two experiments (FIG. 13)

For `N=C(N)NCCCC(NC(=O)C(N)Cc1ccc(O)cc1)C(N)=O` [KTP-NH2, L-Tyr-L-Arg-NH2], the “partition coefficient for POPC, compared with KTP-OH” value ([1]; POPC membranes, KTP-OH value from Lopes et al 2006) was “significantly superior to the one of KTP-OH”, the “local concentration in the model membrane of mammals versus surrounding bulk aqueous phase” value ([1]; POPC vesicles, numerical treatment of fluorescence titration data) was “approx. 2,500 fold” and the CC50 [2] was > 125 µM. The “compound remained after incubation with microsomal preparation” value [3] was 93%, the “action on ER stress chemically induced with tunicamycin” value ([4]; 10 and 100 μM, first assay (FIG. 10)) was “almost no action” and the “decrease of stress chemically induced with tunicamycin” value ([4]; second assay (FIG. 12)) was “did not significantly decrease”. The “residual ER stress signal, of the maximum level without compound” value [4, 6] was 80%, the “effect on the fluorescence (ER stress triggered by TAU P301L)” value ([5]; 10 μM and 100 μM) was “decreased the fluorescence signal” and the “decrease of the fluorescent signal” value ([5]; 10 μM) was 40%. The “decrease of the stress” value ([5]; 10 μM) was 50%, the “residual ER stress signal, of the maximum level without compound” value [5, 6] was ~40% and the “decrease of the fluorescent signal” value ([5]; 100 μM) was 65%. For the same molecule, the “decrease of the stress” value ([5]; 100 μM) was 50%, the “histological alterations in kidney and spleen” value (rats (Wister, male)) was “no histological modifications were found” and the “histological alterations in liver” value (rats (Wister, male)) was “no signs of hepatic necrosis”.
